Source: the NIST ThermoML archive (doi:10.1021/je3011979)

Tests used:
[1] = xn = mol fraction of the nth substance listed; conditions: 101 kPa, Liquid, Vibrating tube method
[2] = excess molar enthalpy (molar enthalpy of mixing); xn = mol fraction of the nth substance listed; conditions: 291.15 K, 101 kPa, Liquid, Calvet calorimetry

CCCOC(C)=O [propyl ethanoate] + CCCCCCC
[1]
Conditions | mass density [kg/m3]
291.15 K, x1 = 0.0086 | 686.6
291.15 K, x1 = 0.032 | 690.1
291.15 K, x1 = 0.0864 | 698.2
291.15 K, x1 = 0.1706 | 711.3
291.15 K, x1 = 0.2573 | 725.7
291.15 K, x1 = 0.3308 | 738.6
291.15 K, x1 = 0.3974 | 750.9
291.15 K, x1 = 0.4644 | 763.7
291.15 K, x1 = 0.5398 | 778.9
291.15 K, x1 = 0.6055 | 792.8
291.15 K, x1 = 0.6723 | 807.4
291.15 K, x1 = 0.7257 | 819.6
291.15 K, x1 = 0.8 | 837.2
291.15 K, x1 = 0.8457 | 848.5
291.15 K, x1 = 0.9057 | 864
291.15 K, x1 = 0.9708 | 881.6
291.15 K, x1 = 1 | 889.6
298.15 K, x1 = 0.0149 | 681.8
298.15 K, x1 = 0.0308 | 684
298.15 K, x1 = 0.0953 | 693.5
298.15 K, x1 = 0.168 | 704.8
298.15 K, x1 = 0.2358 | 715.8
298.15 K, x1 = 0.3084 | 728.2
298.15 K, x1 = 0.375 | 740.2
298.15 K, x1 = 0.4386 | 752.1
298.15 K, x1 = 0.5062 | 765.3
298.15 K, x1 = 0.5643 | 777.2
298.15 K, x1 = 0.6488 | 795.2
298.15 K, x1 = 0.6684 | 799.5
298.15 K, x1 = 0.7446 | 816.9
298.15 K, x1 = 0.793 | 828.4
298.15 K, x1 = 0.8688 | 847.3
298.15 K, x1 = 0.91 | 858
298.15 K, x1 = 0.9508 | 868.8
298.15 K, x1 = 1 | 882.5
318.15 K, x1 = 0.0291 | 666.1
318.15 K, x1 = 0.0843 | 673.9
318.15 K, x1 = 0.1595 | 685.1
318.15 K, x1 = 0.23 | 696.3
318.15 K, x1 = 0.2972 | 707.3
318.15 K, x1 = 0.3638 | 718.8
318.15 K, x1 = 0.4295 | 730.8
318.15 K, x1 = 0.4902 | 742.3
318.15 K, x1 = 0.553 | 754.6
318.15 K, x1 = 0.6057 | 765.4
318.15 K, x1 = 0.6734 | 779.8
318.15 K, x1 = 0.726 | 791.4
318.15 K, x1 = 0.7727 | 802.1
318.15 K, x1 = 0.7949 | 807.7
318.15 K, x1 = 0.8645 | 824.4
318.15 K, x1 = 0.9242 | 839.3
318.15 K, x1 = 1 | 859.8
328.15 K, x1 = 0.0373 | 658.5
328.15 K, x1 = 0.0866 | 665.4
328.15 K, x1 = 0.1645 | 676.8
328.15 K, x1 = 0.2401 | 688.6
328.15 K, x1 = 0.3096 | 700
328.15 K, x1 = 0.3783 | 711.8
328.15 K, x1 = 0.4478 | 724.3
328.15 K, x1 = 0.5142 | 736.8
328.15 K, x1 = 0.5756 | 748.9
328.15 K, x1 = 0.6377 | 761.7
328.15 K, x1 = 0.6884 | 772.5
328.15 K, x1 = 0.756 | 787.5
328.15 K, x1 = 0.8074 | 799.5
328.15 K, x1 = 0.856 | 811.2
328.15 K, x1 = 0.9097 | 824.7
328.15 K, x1 = 0.9638 | 838.7
328.15 K, x1 = 1 | 848.3

[2]
Conditions | excess molar enthalpy [kJ/mol]
x1 = 0.0996 | 0.436
x1 = 0.2001 | 0.756
x1 = 0.2956 | 1.001
x1 = 0.3852 | 1.14
x1 = 0.4642 | 1.192
x1 = 0.5309 | 1.195
x1 = 0.588 | 1.149
x1 = 0.638 | 1.073
x1 = 0.656 | 1.046
x1 = 0.7113 | 0.948
x1 = 0.7717 | 0.81
x1 = 0.8326 | 0.639
x1 = 0.8942 | 0.437
x1 = 0.9501 | 0.226
